Measured values: patent US20070275925A1, “ASTHMA DIAGNOSIS AND THERAPY” (REGENTS OF THE UNIVERSITY OF CALIFORNIA, priority 2006, published 2007)
Entries after “also recorded” stand apart in the source; their conditions may differ.

Key:
[1] = system: epithelial brushings; test: Microarray gene expression in epithelial brushings, randomized placebo-controlled trial of inhaled fluticasone; type: in vivo, human
Procedure: In three cross sectional studies and a clinical trial, epithelial brushings were collected by bronchoscopy from 42 subjects with asthma, 16 current smokers without asthma, and 28 healthy controls. Cross-sectional studies comprised 2 visits, the first for characterization and the second for bronchoscopy. The clinical trial was a 10 week, randomized, double-blind, placebo-controlled trial specifically designed to determine the effects of inhaled fluticasone (500 μg twice daily) on airway gene expression and to relate gene expression changes to improvements in lung function (FIG. 1). Bronchoscopy was performed at baseline and repeated 1 week after starting study drug. Thirty-five subjects had adequate baseline bronchoscopy and 32 had RNA available from epithelial brushings at both bronchoscopies. Lung function was measured at intervals over the 8-week treatment period. Epithelial RNA from a subset of the subjects studied by microarray here have been used in other PCR based gene expression studies performed by our group.^4 Additional information is provided in the supplementary appendix.
(§1) Brushings yielded 1,300,000±800,000 cells of which 97±3% were epithelial. For microarray analysis, […] total epithelial RNA was amplified using NuGen Ovation RNA amplification system. Then 2.75 μg sscDNA was hybridized to Affymetrix U133 plus 2.0 arrays (>54,000 probe sets coding for 38,500 genes). Array images were analyzed using Affymetrix GeneChip Expression Analysis Software. Bioconductor^5 was used for quality control (affyPLM algorithm), preprocessing (RMA algorithm), cluster analysis, and linear modeling.^5-7 Raw array data are available from the Gene Expression Omnibus public database (http://www.ncbi.nlm.nih.gov/geo/, accession number pending). Selected microarray findings were confirmed by real-time PCR, enzyme linked immunosorbent assay (ELISA) or immunohistochemistry. In vitro studies of the effects of interleukin-13 (IL-13) on expression of selected genes were performed using primary airway epithelial cells grown at an air-liquid interface (additional detail in supplementary appendix).
For between group comparisons, t-test, rank-sum test or ANOVA followed by pair-wise analyses with Sidak correction were used as appropriate. Correlation of mRNA copy number by PCR (log transformed for normality) and lung function was performed using Pearson correlation. STATA version 9 software was used (StataCorp, College Station Tex.), and p<0.05 was taken as statistically significant. In microarray analyses, differential gene expression was assessed using linear models (controlling for age and gender). For between group comparisons, a Bonferroni corrected p-value<0.05 was used to identify differentially expressed genes. For the placebo-controlled trial, changes in gene expression from baseline to post-intervention were calculated and the mean changes in the fluticasone and placebo groups were compared. A two-fold change (either higher or lower in the fluticasone group as compared to placebo), was used to identify differentially expressed genes. Microarray analyses were performed using Bioconductor open source software^5 in the R statistical environment.
Protocol: This was a 6 visit, 10 week, randomized, double-blind, placebo-controlled trial specifically designed to determine the effects of inhaled fluticasone on airway gene expression and to relate those gene expression changes to improvements in lung function. After a one-week run-in/characterization period, subjects were randomized to receive 2 puffs BID of fluticasone propionate (250 μg/puff) or matching placebo for 8 weeks, followed by a one week run-out. Subjects were randomized in blocks designed to yield a greater number of subjects randomized to fluticasone as compared to placebo in order to maximize our ability to relate gene expression to lung function improvements within the intervention group. […]

[2] = system: airway epithelial brushings; test: Taqman / real-time PCR gene expression in airway epithelial brushings, fluticasone trial; type: in vivo, human
Procedure: as §1
In further analysis of the same dataset we have identified six genes (Table 4) which are differentially expressed in airway epithelial brushings from asthmatics asthma or altered by corticosteroid treatment of asthmatic subjects and which have not previously been implicated in asthma or in the mechanism of steroid benefit in asthma.

[3] = fluticasone arm as compared to the placebo arm
[4] = fluticasone group as compared to placebo group, baseline to 1 week
[5] = fluticasone group, baseline to 1 week, asthmatics
[6] = one week of treatment, n = 16, greater than one indicates suppression

CCC(=O)O[C@]1(C(=O)SCF)[C@H](C)C[C@H]2[C@@H]3C[C@H](F)C4=CC(=O)C=C[C@]4(C)[C@@]3(F)[C@@H](O)C[C@@]21C [fluticasone, fluticasone propionate]
CST1 gene expression in airway epithelial brushing from asthmatics treated with inhaled fluticasone ([1]; additional gene profiling experiments): upregulated | CST1 reduction by array [1, 3]: 2 fold | PRR4 gene expression change with fluticasone ([1]; fluticasone arm as compared to the placebo arm, asthmatic airway epithelial cells): only modestly reduced; also recorded: no significant change | Fold-difference Combined, 227061_at (CDNA FLJ44429 fis) [1, 4]: 2.0 fold | Fold-difference Combined, 228854_at (Transcribed locus) [1, 4]: 10.5 fold | Fold-difference Combined, 228858_at (Transcribed locus) [1, 4]: 2.8 fold | Fold-difference Combined, 230782_at (CDNA FLJ33419 fis) [1, 4]: 2.2 fold | Fold-difference Combined, 231262_at (Transcribed locus) [1, 4]: 2.8 fold | Fold-difference Combined, 244677_at [1, 4]: 2.3 fold | Fold-difference Combined, C6 [1, 4]: 2.2 fold | Fold-difference Combined, C14orf78 [1, 4]: 2.1 fold | Fold-difference Combined, CLCA1 [1, 4]: −2.4 fold | Fold-difference Combined, CST1 [1, 4]: −2.1 fold | Fold-difference Combined, FKBP51 [1, 4]: 4.4 fold | Fold-difference Combined, FXYD1 [1, 4]: 2.1 fold | Fold-difference Combined, GAS1 [1, 4]: 3.3 fold | Fold-difference Combined, GPR109B [1, 4]: 2.4 fold | Fold-difference Combined, HBA2 [1, 4]: 2.7 fold | Fold-difference Combined, HBB [1, 4]: 2.1 fold | Fold-difference Combined, HIF3A [1, 4]: 2.7 fold | Fold-difference Combined, KLF9 [1, 4]: 2.4 fold | Fold-difference Combined, LOC157381 [1, 4]: 2.1 fold | Fold-difference Combined, MUC13 [1, 4]: −2.0 fold | Fold-difference Combined, PHACTR3 [1, 4]: 3.2 fold | Fold-difference Combined, POSTN [1, 4]: −2.1 fold | Fold-difference Combined, PPP1R16B [1, 4]: 2.4 fold | Fold-difference Combined, SERPINB2 [1, 4]: −2.9 fold | Fold-difference Combined, TFCP2L1 [1, 4]: 3.0 fold | Fold-difference Combined, TSC22D3 [1, 4]: 2.5 fold | Fold-difference Combined, TU3A [1, 4]: 2.8 fold | Fold-difference Combined, UBD [1, 4]: −2.1 fold | Fold-difference Combined, UBE2H [1, 4]: 2.1 fold | Fold-difference Combined, WIPI49 [1, 4]: 2.0 fold | Fold-difference Flovent, 227061_at (CDNA FLJ44429 fis) [1, 5]: 1.6 fold | Fold-difference Flovent, 228854_at (Transcribed locus) [1, 5]: 7.3 fold | Fold-difference Flovent, 228858_at (Transcribed locus) [1, 5]: 2.4 fold | Fold-difference Flovent, 230782_at (CDNA FLJ33419 fis) [1, 5]: 2.1 fold | Fold-difference Flovent, 231262_at (Transcribed locus) [1, 5]: 2.4 fold | Fold-difference Flovent, 244677_at [1, 5]: 1.8 fold | Fold-difference Flovent, C6 [1, 5]: 1.6 fold | Fold-difference Flovent, C14orf78 [1, 5]: 1.8 fold | Fold-difference Flovent, CLCA1 [1, 5]: −2.7 fold | Fold-difference Flovent, CST1 [1, 5]: −2.4 fold | Fold-difference Flovent, FKBP51 [1, 5]: 3.6 fold | Fold-difference Flovent, FXYD1 [1, 5]: 1.4 fold | Fold-difference Flovent, GAS1 [1, 5]: 2.7 fold | Fold-difference Flovent, GPR109B [1, 5]: 1.9 fold | Fold-difference Flovent, HBA2 [1, 5]: 3.0 fold | Fold-difference Flovent, HBB [1, 5]: 2.5 fold | Fold-difference Flovent, HIF3A [1, 5]: 2.7 fold | Fold-difference Flovent, KLF9 [1, 5]: 2.2 fold | Fold-difference Flovent, LOC157381 [1, 5]: 1.7 fold | Fold-difference Flovent, MUC13 [1, 5]: −1.6 fold | Fold-difference Flovent, PHACTR3 [1, 5]: 3.1 fold | Fold-difference Flovent, POSTN [1, 5]: −2.1 fold | Fold-difference Flovent, PPP1R16B [1, 5]: 2.1 fold | Fold-difference Flovent, SERPINB2 [1, 5]: −2.5 fold | Fold-difference Flovent, TFCP2L1 [1, 5]: 3.1 fold | Fold-difference Flovent, TSC22D3 [1, 5]: 2.0 fold | Fold-difference Flovent, TU3A [1, 5]: 2.3 fold | Fold-difference Flovent, UBD [1, 5]: −2.0 fold | Fold-difference Flovent, UBE2H [1, 5]: 2.0 fold | Fold-difference Flovent, WIPI49 [1, 5]: 1.7 fold | CST1 reduction by taqman [2, 3]: 6 fold | FLUTICASONE Change AVERAGE, CEACAM5 (ratio of gene expression before and after treatment) [2, 6]: 1.88 | FLUTICASONE Change AVERAGE, CST1 (ratio of gene expression before and after treatment) [2, 6]: 5.97 | FLUTICASONE Change AVERAGE, CST4 (ratio of gene expression before and after treatment) [2, 6]: 5.41 | FLUTICASONE Change AVERAGE, HDAC9 (ratio of gene expression before and after treatment) [2, 6]: 2.10 | FLUTICASONE Change AVERAGE, SERPINB1 (ratio of gene expression before and after treatment) [2, 6]: 2.31
